Laboratory results reported in EP0326922A2 (priority 1988, dated 1989).
Converted amounts (≈) assume the structure as drawn.

What was measured:
[1] = solvents in which the substance dissolves, in words
Saccharomyces cerevisiae = test: MIC (MHK) determination; type: cell-based; settings: read-out: MHK-Werte
Botrytis cinerea 16 = test: MIC (MHK) determination; type: cell-based; settings: read-out: MHK-Werte
[2] = system: Penicillium digitatum 135; test: MIC (MHK) determination; type: cell-based; settings: read-out: MHK-Werte
Fusarium culmorum 100 = test: MIC (MHK) determination; type: cell-based; settings: read-out: MHK-Werte
Staph. aureus 209 P = test: MIC (MHK) determination; type: cell-based; settings: Staphylococcus aureus, read-out: MHK-Werte
Alternaria solani 5 = test: MIC (MHK) determination; type: cell-based; settings: read-out: MHK-Werte
Botrytis cinerea 57 = test: MIC (MHK) determination; type: cell-based; settings: read-out: MHK-Werte
Botrytis cinerea 47 = test: MIC (MHK) determination; type: cell-based; settings: read-out: MHK-Werte
Cercospora beticola 71 = test: MIC (MHK) determination; type: cell-based; settings: read-out: MHK-Werte
[3] = system: Trichophyton mentagrophytes; test: MIC (MHK) determination; type: cell-based; settings: read-out: MHK-Werte
Pyricularia oryzae 154 = test: microbe, parasite or virus in culture; type: cell-based; settings: Pyricularia oryzae, 154, read-out: MHK-Werte
Cladosporuim resinae = test: MIC (MHK) determination; type: cell-based; settings: read-out: MHK-Werte
Hefe 5060 = test: MIC (MHK) determination; type: cell-based; settings: read-out: MHK-Werte
Aspergillus niger = test: MIC (MHK) determination; type: cell-based; settings: read-out: MHK-Werte
E. coli 9632 = test: MIC (MHK) determination; type: cell-based; settings: Escherichia coli, read-out: MHK-Werte
Candida albicans = test: MIC (MHK) determination; type: cell-based; settings: read-out: MHK-Werte

Row | SMILES | Löslichkeit [1] | MIC (Saccharomyces cerevisiae) | MIC (Botrytis cinerea 16) | MIC [2] | MIC (Fusarium culmorum 100) | MIC (Staph. aureus 209 P) | MIC (Alternaria solani 5) | MIC (Botrytis cinerea 57) | MIC (Botrytis cinerea 47) | MIC (Cercospora beticola 71) | MIC [3] | MIC (Pyricularia oryzae 154) | MIC (Cladosporuim resinae) | MIC (Hefe 5060) | MIC (Aspergillus niger) | MIC (E. coli 9632) | MIC (Candida albicans)
1 | COC(=O)/C=C(/C=C/C(C)C/C=C/CC/C=C/C=C\CC(OC)/C(C)=C\C=C(/C)C(=O)OC)CC(=O)OC (stereo not drawn) [Isobongkrekinsäure-trimethylester] | CHCl3, CH2Cl2,MeOH, Aceton, Äthylacetat und Petroläther |  |  |  |  |  |  |  |  |  |  |  |  |  |  |  | 
2 | COC(C/C=C\C=C\CC/C=C/CC(C)/C=C/C(=C/C(=O)O)CC(=O)O)/C(C)=C\C=C(/C)C(=O)O (stereo not drawn) [Isobongkrekinsäure, 3-Carboxymethyl-17-methoxy-6,18,21-trimethyldocosa-2E,4E,8E,12E,14Z,18Z,20E-hepta-en-1,22-disäure] | Wäßriges Alkali, schwerlöslich in MeOH und Wasser | > 125 µg/mL | 62.5 µg/mL (≈ 128 µM) | 62.5 µg/mL (≈ 128 µM) | 7.8 µg/mL (≈ 16 µM) | 125 µg/mL (≈ 257 µM) | 62.5 µg/mL (≈ 128 µM) | 31.2 µg/mL (≈ 64.1 µM) | 15.6 µg/mL (≈ 32.1 µM) | 15.6 µg/mL (≈ 32.1 µM) | 125 µg/mL (≈ 257 µM) | 31.2 µg/mL (≈ 64.1 µM) | 250 µg/mL (≈ 514 µM) | > 125 µg/mL | 62.5 µg/mL (≈ 128 µM) | > 125 µg/mL | > 125 µg/mL
